We go through twelve compounds from US8957074B2 (Novartis AG, priority 2010, dated 2015).

Experiment [1] deals with phosphorylation of pRb at the Ser780 site in JeKo-1 mantle cell lymphoma cells. Briefly: CDK4 cellular assay: ELISA of pRb phosphorylation at Ser780 in JeKo-1 cells. Format: cell-based. The source says:
Cell-based assay measuring phosphorylation levels of pRb at the Ser780 site using an enzyme-linked immunosorbent assay (ELISA) method (Table 6). JeKo-1, a mantle-cell lymphoma cell line, was selected for use in this assay due to its known translocation and subsequent overexpression of cyclin D1. [Ref: Amin, H. M.; McDonnell, T. J.; Medeiros, L. J.; Rassidakis, G. Z.; Leventaki, V.; O'Connor, S. L.; Keating, M. J.; Lai, R. Characterization of 4 mantle cell lymphoma cell lines—Establishment of an in vitro study model. Arch. Pathol. Lab.
Cells were allowed to adhere overnight. […] 10 μL of the dilution were then transferred to the cell culture plate, resulting in a final concentration range of 10 μM to 2 nM. The incubation was carried out at 37° C. with 5% CO2. All compounds were tested in triplicates at each concentration. […] The plates were placed at 4° C. with vigorous shaking for 5 min to lyse the cells. The resulting lysates contained approximately 1 μg/μL of protein.
Plates were incubated overnight at 4° C. with rocking. […] After shaking for 10 minutes, the Superblock solution was replaced with fresh Superblock and plates were incubated on a shaker for an additional 50 min. After blocking, 30 μL of JeKo-1 cell lysate, containing approximately 10 μg total protein, were added to wells in triplicate. […] For all incubation steps, plates were covered with Uniseal plate sealers. […] Next, 50 μL of a 1:2500 dilution of donkey-anti-rabbit HRP (Promega catalog no. W401B) in PBS/10% Superblock were added, and plates were incubated for 30 min at room temperature on a shaker. Plates were again washed as described above. […] After incubation, 50 μL 2 M sulfuric acid were added to plates to top the reaction, and absorbance was determined on a SpectraMax (Molecular Devices, Sunnydale, Calif.) within 15 minutes at 450 nm. All washes were performed using a Bio-Tek plate washer.
The Total Rb ELISA kit (Invitrogen catalog no. KH00011) was used to determine the levels of total pRb. This kit uses wells precoated with a proprietary total pRb antibody for capture. All reagents listed, with the exception of cell lysate, were included in the kit. The nature of the antibodies used for capture and detection was labeled as proprietary and not disclosed. 10 μg of cell lysate was loaded into the wells and volume adjusted to 50 μL with standard dilution buffer. Plates were sealed with film included in the kit and incubated for 2 h at room temperature on a shaker. Plates are then manually washed three times with 250 μL wash buffer. 50 μL of proprietary primary antibody (pre-conjugated to biotin) was added to wells and incubated for 1 h at room temperature on a shaker. Then plates were again washed as noted above. The secondary antibody (HRP pre-conjugated to Streptavidin) was diluted 1:100 in Streptavidin-HRP diluent buffer and 50 μL was added to each well. Plates were then incubated for 30 min. Afterwards, plates were washed four times with buffer as outlined above. Finally, 50 μL stabilized Chromogen was added per well and plates were incubated for 15 min, at which point 50 μL of stop solution was added. Plates were then read on a Spectramax at 450 nm.
The total pRb levels were then used to adjust the p-pRb % inhibition values to account for any loss of signal due to the absence of the pRb protein itself, and the IC50 values obtained from the adjusted % inhibitions represent normalized cellular p-pRb IC50.

In the next experiment the target is CDK4/cyclin D1 (Homo sapiens (Human), UniProt P11802). Briefly: CDK4/cyclin D1 enzymatic activity assay (TR-FRET, phosphorylation of pRb at Ser780). In kind it is biochemical. As to the method: CDK4/Cyclin D1 Enzymatic Activity Assay
An assay for monitoring CDK4/cyclin D1-catalyzed phosphorylation of pRb at the Ser780 site was performed using TR-FRET in a 384-well format, and was used for IC50 determination and kinetic analysis. […] 3 μM ATP was added last to initiate the reaction. The reaction was quenched with 10 μL of 240 mM EDTA-Na (pH 8.0) after 60 min incubation at 22° C.
Human CDK4/cyclin D1 was expressed in Sf21 cells via baculovirus infection.
Background: TR-FRET usually uses a lanthanide donor and a delayed reading to cut background.

For another experiment, the target named is CDK1/cyclin B (Homo sapiens (Human), UniProt P06493). In words: CDK1/cyclin B enzymatic activity assay (IMAP-FP). In kind it is biochemical. From the text:
CDK1/Cyclin B Enzymatic Activity Assay
A 384-well microtiter IMAP-FP™ (Molecular Devices Trade Mark Technology) endpoint assay was used for CDK1/cyclin B kinase activity measurements. The same assay was used for IC50 determination of small molecule inhibitors.

Where [2] appears, read: Homo sapiens, JeKo-1, JeKo-1 cells, p-pRb % inhibition adjusted with total pRb levels, read-out: Normalized cellular ppRb inhibition IC50.
Where [3] appears, read: Homo sapiens, JeKo-1, JeKo-1 cells, p-pRb Ser780 ELISA, non-normalized, read-out: Cellular ppRb inhibition IC50.
Setting [4] is: 0.25 nM CDK1/cyclin B, 100 nM Tamra Histone-H1 peptide, 20 μM ATP, 120 min at room temperature, read-out: Biochemical CDK1 enzyme IC50.
The mark [5] stands for this setting: Homo sapiens, JeKo-1, read-out: Cellular ppRb inhibition IC50.
The mark [6] stands for this setting: Homo sapiens, JeKo-1, read-out: Normalized cellular ppRb inhibition IC50.
Setting [7] is: 0.3 nM CDK4/cyclin D1, 150 nM biotin-pRb (773-924), 3 μM ATP, 60 min at 22° C., read-out: Biochemical CDK4 enzyme IC50.
[8] abbreviates: […] CDK1/cyclin B, 100 nM Tamra Histone-H1 peptide, 20 μM ATP, 120 min at room temperature, read-out: Biochemical CDK1 enzyme IC50.
Where [9] appears, read: Homo sapiens, JeKo-1 cells, p-pRb Ser780 ELISA, non-normalized, read-out: Cellular ppRb inhibition IC50.

Each structure is given as a SMILES string. Read-outs that look alike come from different tables or passages of the source. Some results are limits rather than exact numbers.

CDK4/cyclin D1, sequence (P11802 whole entry): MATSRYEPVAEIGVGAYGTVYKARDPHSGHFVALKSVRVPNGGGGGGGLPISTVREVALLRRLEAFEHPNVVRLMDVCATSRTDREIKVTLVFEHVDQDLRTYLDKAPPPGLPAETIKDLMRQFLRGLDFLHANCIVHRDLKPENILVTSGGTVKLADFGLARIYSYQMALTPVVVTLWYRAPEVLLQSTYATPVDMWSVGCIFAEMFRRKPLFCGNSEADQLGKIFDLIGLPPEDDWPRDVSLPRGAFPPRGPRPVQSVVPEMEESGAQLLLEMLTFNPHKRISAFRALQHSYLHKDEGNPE
CDK4/cyclin D1, sequence (P24385 whole entry partner): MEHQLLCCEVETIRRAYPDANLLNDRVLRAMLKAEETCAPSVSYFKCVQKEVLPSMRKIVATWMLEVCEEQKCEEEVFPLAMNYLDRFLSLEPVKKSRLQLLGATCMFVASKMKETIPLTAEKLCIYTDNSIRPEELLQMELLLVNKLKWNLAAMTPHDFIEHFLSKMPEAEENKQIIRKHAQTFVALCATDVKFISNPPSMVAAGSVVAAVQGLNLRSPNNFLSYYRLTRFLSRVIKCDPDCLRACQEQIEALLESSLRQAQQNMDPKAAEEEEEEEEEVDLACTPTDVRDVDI
CDK1/cyclin B, sequence (P06493 whole entry, species assumed): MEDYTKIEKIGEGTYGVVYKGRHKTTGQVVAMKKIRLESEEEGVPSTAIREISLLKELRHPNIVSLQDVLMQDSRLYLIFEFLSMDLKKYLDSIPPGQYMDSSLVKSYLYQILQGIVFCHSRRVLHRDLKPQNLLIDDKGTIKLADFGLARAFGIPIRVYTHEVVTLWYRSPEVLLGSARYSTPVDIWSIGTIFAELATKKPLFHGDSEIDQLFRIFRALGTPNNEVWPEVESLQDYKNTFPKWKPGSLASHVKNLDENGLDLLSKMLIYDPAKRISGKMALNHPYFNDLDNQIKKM
CDK1/cyclin B, sequence (P14635 whole entry partner, species assumed): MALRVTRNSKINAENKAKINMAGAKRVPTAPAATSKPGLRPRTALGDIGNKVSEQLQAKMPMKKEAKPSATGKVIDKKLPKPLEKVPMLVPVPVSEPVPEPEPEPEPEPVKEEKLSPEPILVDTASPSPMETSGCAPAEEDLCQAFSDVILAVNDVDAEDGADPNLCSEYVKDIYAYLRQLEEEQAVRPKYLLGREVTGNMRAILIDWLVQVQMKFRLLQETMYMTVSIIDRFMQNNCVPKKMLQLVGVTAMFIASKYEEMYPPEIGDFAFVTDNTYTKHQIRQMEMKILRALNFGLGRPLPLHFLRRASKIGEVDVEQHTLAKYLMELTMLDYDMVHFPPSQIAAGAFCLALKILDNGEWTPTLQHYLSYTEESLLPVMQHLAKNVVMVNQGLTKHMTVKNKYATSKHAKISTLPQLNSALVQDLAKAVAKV

One may read the IC50 as the concentration that inhibits the measured activity by half. As for `CN(C)C(=O)c1cc2cnc(Nc3ccc(C(=O)N4CC5CCC(C4)N5)nn3)nc2n1C1CCCC1` [Example 38, 7-Cyclopentyl-2-[6-(3,8-diaza-bicyclo[3.2.1]octane-3-carbonyl)-pyridazin-3-ylamino]-7H-pyrrolo[2,3-d]pyrimidine-6-carboxylic acid dimethylamide], the concentration for half-maximal inhibition (IC50) in experiment [1] (setting [2]) was 139 to 783 nM; in experiment [1] (setting [3]) it was 75 to 259 nM; against CDK4/cyclin D1, 45 to 84 nM; on CDK1/cyclin B (setting [4]), greater than 15000 nM.
Regarding `CN(C)C(=O)c1cc2cnc(Nc3ccc(N4C[C@H]5CNC[C@H]5CC4=O)cn3)nc2n1C1CCCC1` (stereo in doubt) [Example 91, 7-cyclopentyl-N,N-dimethyl-2-(5-(cis-6-oxotetrahydro-1H-pyrrolo[3,4-c]pyridin-5(6H,7H,7aH)-yl)pyridin-2-ylamino)-7H-pyrrolo[2,3-d]pyrimidine-6-carboxamide], the IC50 in experiment [1] (setting [5]) was 10 to 27 nM; in experiment [1] (setting [6]), 22 to 74 nM; at CDK4/cyclin D1 (setting [7]), 5 to 7 nM; on CDK1/cyclin B (setting [4]), 13300 to 14900 nM.
In the case of `CN(C)C(=O)c1cc2cnc(Nc3ccc(N4C(=O)CN5CCC4CC5)cn3)nc2n1C1CCCC1` [Example 96, 7-cyclopentyl-N,N-dimethyl-2-(5-(3-oxo-1,4-diazabicyclo[3.2.2]nonan-4-yl)pyridin-2-ylamino)-7H-pyrrolo[2,3-d]pyrimidine-6-carboxamide], the IC50 in experiment [1] (JeKo-1 cells, p-pRb % inhibition adjusted with total pRb levels, read-out: Normalized cellular ppRb inhibition IC50) was 73 to 107 nM; in experiment [1] (JeKo-1 cells, p-pRb Ser780 ELISA, non-normalized, read-out: Cellular ppRb inhibition IC50), 31 to 39 nM; at CDK4/cyclin D1 (setting [7]), 15 to 28 nM; on CDK1/cyclin B (setting [8]) it was 10800 nM.
Consider `CN(C)C(=O)c1cc2cnc(Nc3ccc(N4CCCC5(CCNCC5)C4=O)cn3)nc2n1C1CCCC1` [Example 114, 7-Cyclopentyl-2-[5-(1-oxo-2,9-diaza-spiro[5,5]undec-2-yl)-pyridin-2-ylamino]-7H-pyrrolo[2,3-d]pyrimidine-6-carboxylic acid dimethylamide], for which the 50% inhibitory concentration (IC50) in experiment [1] (setting [5]) was 1350 nM; in experiment [1] (setting [6]) it was 7100 nM; on CDK4/cyclin D1 (setting [7]) it was 190 nM; at CDK1/cyclin B (setting [4]) it was greater than 15000 nM.
`CN(C)C(=O)c1cc2cnc(Nc3ccc(C(=O)N4C[C@H]5C[C@@H]4CN5)cn3)nc2n1C1CCCC1` [Example 49, 7-Cyclopentyl-2-[5-((R,R)-2,5-diaza-bicyclo[2.2.1]heptane-2-carbonyl)-pyridin-2-ylamino]-7H-pyrrolo[2,3-d]pyrimidine-6-carboxylic acid dimethylamide]: the IC50 in experiment [1] (setting [2]) was 52 to 431 nM; in experiment [1] (setting [3]), 44 to 231 nM; at CDK4/cyclin D1 (setting [7]), 45 nM; at CDK1/cyclin B (setting [8]), greater than 15000 nM.
Take `CN(C)C(=O)c1cc2cnc(Nc3ccc(C(=O)N4CC5CCC(C4)N5)cn3)nc2n1-c1ccc(C(C)(C)C)cc1` [Example 53, 7-(4-tert-Butyl-phenyl)-2-[5-(3,8-diaza-bicyclo[3.2.1]octane-3-carbonyl)-pyridin-2-ylamino]-7H-pyrrolo[2,3-d]pyrimidine-6-carboxylic acid dimethylamide]: the concentration for half-maximal inhibition (IC50) in experiment [1] (setting [2]) was 7 to 27 nM; in experiment [1] (setting [3]), 7 to 14 nM; at CDK4/cyclin D1 (setting [7]), 3 nM; at CDK1/cyclin B (setting [8]) it was greater than 15000 nM.
On to `CN(C)C(=O)c1cc2cnc(Nc3ccc(N4CC5CCC(CC4=O)N5)cn3)nc2n1C1CCC1` (centres unmarked) [Example 134, 7-Cyclobutyl-2-[5-(4-oxo-3,9-diaza-bicyclo[4.2.1]non-3-yl)-pyridin-2-ylamino]-7H-pyrrolo[2,3-d]pyrimidine-6-carboxylic acid dimethylamide], for which the 50% inhibitory concentration (IC50) in experiment [1] (setting [2]) was 123 nM; in experiment [1] (setting [3]), 66 nM; on CDK4/cyclin D1 (setting [7]) it was 8 nM; at CDK1/cyclin B (setting [8]) it was greater than 15000 nM.
As to `CN(C)C(=O)c1cc2cnc(Nc3ccc(C(=O)N4CC5CC[C@@H](C4)N5)cn3)nc2n1[C@H]1C[C@@H]2CC[C@H]1C2` [Example 77, 7-(1S,2S,4R)-Bicyclo[2.2.1]hept-2-yl-2-[5-(3,8-diaza-bicyclo[3.2.1]octane-3-carbonyl)-pyridin-2-ylamino]-7H-pyrrolo[2,3-d]pyrimidine-6-carboxylic acid dimethylamide], the 50% inhibitory concentration (IC50) in experiment [1] (setting [2]) was 225 nM; in experiment [1] (setting [3]) it was 172 nM; at CDK4/cyclin D1 (setting [7]), 27 nM; against CDK1/cyclin B, greater than 15000 nM.
Consider `CN(C)C(=O)c1cc2cnc(Nc3ccc(C(=O)N4CC5CCC(C4)O5)cn3)nc2n1C1CCCC1` [Example 74, 7-Cyclopentyl-2-[5-(8-oxa-3-aza-bicyclo[3.2.1]octane-3-carbonyl)-pyridin-2-ylamino]-7H-pyrrolo[2,3-d]pyrimidine-6-carboxylic acid dimethylamide], for which the IC50 is 257 nM in experiment [1] (setting [2]), 151 nM in experiment [1] (setting [3]), 67 nM at CDK4/cyclin D1 (setting [7]) and greater than 15000 nM on CDK1/cyclin B (setting [4]).
On to `CC(=O)NCC(=O)N1[C@@H]2CC[C@H]1CN(c1ccc(Nc3ncc4cc(C(=O)N(C)C)n(C5CCCC5)c4n3)nc1)C(=O)C2` [Example 138, 2-(5-((1S,6R)-9-(2-acetamidoacetyl)-4-oxo-3,9-diazabicyclo[4.2.1]nonan-3-yl)pyridin-2-ylamino)-7-cyclopentyl-N,N-dimethyl-7H-pyrrolo[2,3-d]pyrimidine-6-carboxamide], for which the results for the IC50 (in experiment [1] (setting [9]); at CDK4/cyclin D1 (setting [7]); on CDK1/cyclin B (setting [8])) were 1600 nM, 106 nM and greater than 15000 nM, respectively.
With `CN(C)C(=O)c1cc2cnc(Nc3ccc(C(=O)N4CC5CN(Cc6ccccc6)CC(C4)O5)cn3)nc2n1C1CCCC1` [Example 46, 2-[5-(7-Benzyl-9-oxa-3,7-diaza-bicyclo[3.3.1]nonane-3-carbonyl)-pyridin-2-ylamino]-7-cyclopentyl-7H-pyrrolo[2,3-d]pyrimidine-6-carboxylic acid dimethylamide], the IC50 in experiment [1] (setting [2]) is 730 nM; in experiment [1] (setting [3]), 724 nM; on CDK4/cyclin D1 (setting [7]), 100 nM; on CDK1/cyclin B (setting [8]), greater than 15000 nM.
With `CN(C)C(=O)c1cc2cnc(Nc3ccc(C(=O)N4CC5COCC(C4)N5)cn3)nc2n1C1CCCC1` [Example 70, 7-Cyclopentyl-2-[5-(3-oxa-7,9-diaza-bicyclo[3.3.1]nonane-7-carbonyl)-pyridin-2-ylamino]-7H-pyrrolo[2,3-d]pyrimidine-6-carboxylic acid dimethylamide], the IC50 was 180 nM in experiment [1] (Homo sapiens, JeKo-1 cells, p-pRb % inhibition adjusted with total pRb levels, read-out: Normalized cellular ppRb inhibition IC50); 117 nM in experiment [1] (setting [9]); 39 nM at CDK4/cyclin D1 (setting [7]); greater than 15000 nM on CDK1/cyclin B (setting [8]).
